Results on one compound are retold here after paper PMC4113215 (Biochemical and biophysical research communications, 2014).

Experiment [1] has as its target T1, prDMGDH-var2 (precursor DMGDHvar-2) (Rattus norvegicus, UniProt Q63342).
T1 sequence (Q63342 1-857): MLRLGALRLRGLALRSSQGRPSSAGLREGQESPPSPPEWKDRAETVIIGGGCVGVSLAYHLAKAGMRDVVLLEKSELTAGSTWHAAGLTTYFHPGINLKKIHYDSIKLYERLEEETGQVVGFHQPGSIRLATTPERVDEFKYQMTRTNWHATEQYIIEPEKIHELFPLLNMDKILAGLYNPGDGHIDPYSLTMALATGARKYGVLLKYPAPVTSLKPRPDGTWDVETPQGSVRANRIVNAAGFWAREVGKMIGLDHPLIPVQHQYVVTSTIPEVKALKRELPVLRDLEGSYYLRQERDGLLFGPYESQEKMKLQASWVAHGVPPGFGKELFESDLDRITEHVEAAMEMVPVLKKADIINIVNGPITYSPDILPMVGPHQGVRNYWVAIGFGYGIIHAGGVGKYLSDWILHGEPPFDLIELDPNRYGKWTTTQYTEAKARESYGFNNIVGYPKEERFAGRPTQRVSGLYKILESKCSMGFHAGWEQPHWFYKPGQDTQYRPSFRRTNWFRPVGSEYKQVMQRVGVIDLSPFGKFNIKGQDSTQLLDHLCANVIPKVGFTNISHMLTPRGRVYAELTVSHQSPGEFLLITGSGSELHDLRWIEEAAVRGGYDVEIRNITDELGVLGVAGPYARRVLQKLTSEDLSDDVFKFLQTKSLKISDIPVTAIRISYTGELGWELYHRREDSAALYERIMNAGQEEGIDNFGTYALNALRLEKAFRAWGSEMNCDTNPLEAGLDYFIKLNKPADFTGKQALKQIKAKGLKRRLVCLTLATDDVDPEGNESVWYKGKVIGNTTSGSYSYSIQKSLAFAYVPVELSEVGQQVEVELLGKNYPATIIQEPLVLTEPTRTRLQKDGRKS
Briefly: X-ray crystal structure, […] Å. Type of experiment: binding. As to conditions: covalent; histidyl(N3)-(8alpha)FAD at His84; THF also bound.

Experiment [2] addresses T2, mDMGDH (mature rat DMGDH) (Rattus norvegicus, UniProt Q63342).
T2 sequence (Q63342 22-857): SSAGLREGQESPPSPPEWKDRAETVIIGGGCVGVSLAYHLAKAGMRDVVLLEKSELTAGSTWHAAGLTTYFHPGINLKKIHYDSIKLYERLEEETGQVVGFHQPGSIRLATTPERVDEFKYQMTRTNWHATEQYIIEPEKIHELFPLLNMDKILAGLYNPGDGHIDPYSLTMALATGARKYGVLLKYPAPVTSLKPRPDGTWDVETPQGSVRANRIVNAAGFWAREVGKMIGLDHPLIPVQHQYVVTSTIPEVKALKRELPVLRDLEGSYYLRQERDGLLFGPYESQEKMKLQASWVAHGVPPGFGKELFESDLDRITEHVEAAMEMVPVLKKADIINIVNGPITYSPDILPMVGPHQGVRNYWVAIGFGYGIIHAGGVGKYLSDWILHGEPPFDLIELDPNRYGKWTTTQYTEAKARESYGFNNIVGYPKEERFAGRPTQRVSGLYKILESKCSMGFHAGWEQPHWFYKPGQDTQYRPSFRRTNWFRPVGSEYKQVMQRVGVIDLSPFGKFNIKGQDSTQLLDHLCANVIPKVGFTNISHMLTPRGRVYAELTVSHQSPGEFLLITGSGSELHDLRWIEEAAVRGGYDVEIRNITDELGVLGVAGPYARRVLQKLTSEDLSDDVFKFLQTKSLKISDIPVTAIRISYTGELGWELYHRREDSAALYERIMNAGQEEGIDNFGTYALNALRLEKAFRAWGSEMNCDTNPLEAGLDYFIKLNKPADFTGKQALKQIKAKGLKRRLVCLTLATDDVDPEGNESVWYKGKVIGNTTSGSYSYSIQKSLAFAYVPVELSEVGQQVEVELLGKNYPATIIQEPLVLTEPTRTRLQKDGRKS
Put plainly: X-ray crystal structure, […] Å. The settings on record: covalent; histidyl(N3)-(8alpha)FAD at His84; no folate. Type of experiment: binding.

As to `Cc1cc2nc3c(=O)[nH]c(=O)nc-3n(C[C@H](O)[C@H](O)[C@H](O)COP(=O)(O)OP(=O)(O)OC[C@H]3O[C@@H](n4cnc5c(N)ncnc54)[C@H](O)[C@@H]3O)c2cc1C` [FAD], in experiment [1], the “X-ray crystal structure, 1.85 Å” value was “two covalently bound FAD molecules, two folate molecules”. Also, the “X-ray crystal structure, 2.32 Å” value in experiment [2] is given as “N-terminal domain covalently binds cofactor FAD through His84”.
